IC50 data for 50 molecules are collected here from patent US12012403B2, “Aryl sulfonyl compounds as CCR6 inhibitors” (CHEMOCENTRYX, INC., priority 2021, dated 2024).

In the test the target is T1, human CCR6 (Homo sapiens, UniProt P51684).
T1 construct: expressed in transfected cells; host or cells: Ba/F3 cells (murine pro-B line), hCCR6-transfected, CMV promoter, sodium butyrate induction
T1 sequence (P51684 1-374): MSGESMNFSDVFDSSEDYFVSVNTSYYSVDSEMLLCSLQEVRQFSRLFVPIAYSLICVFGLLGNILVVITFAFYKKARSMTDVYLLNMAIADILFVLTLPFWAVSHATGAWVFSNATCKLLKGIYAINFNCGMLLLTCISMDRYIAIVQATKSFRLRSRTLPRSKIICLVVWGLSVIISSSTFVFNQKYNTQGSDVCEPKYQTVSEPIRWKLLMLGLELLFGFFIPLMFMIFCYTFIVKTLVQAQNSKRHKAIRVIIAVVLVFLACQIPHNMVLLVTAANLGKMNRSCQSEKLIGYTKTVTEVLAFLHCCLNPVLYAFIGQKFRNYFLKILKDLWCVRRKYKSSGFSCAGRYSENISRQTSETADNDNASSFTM
In words: Migration (chemotaxis) assay, hCCR6-transfected Ba/F3 cells toward CCL20. The following applies: hCCR6-transfected Ba/F3 cells in human serum; recombinant human CCL20 10 nM; 37° C. 45 minutes; read-out: Potency (IC50 value in the migration assay). The test is classed as cell-based. An excerpt:
A chemotaxis assay can be used to determine the efficacy of potential receptor antagonists at blocking the migration mediated through chemokine receptors, such as CCR6. This assay is routinely performed using the ChemoTX® microchamber system with a 5-μm pore-sized polycarbonate membrane. Chemokine receptor-expressing cells are required for such an assay. In this case, Ba/F3 cells (Palacios et al., Nature, 309:126, 1984) transfected with the gene for human CCR6 under control of the CMV promotor were used. To begin such an assay, hCCR6-transfected Ba/F3 cells are first grown for 24 hr in medium supplemented with sodium butyrate, which increases CCR6 transcription via the CMV promotor. The prepared Ba/F3 cells, are collected by centrifugation at 400×g at room temperature, then suspended at 4 million/ml in human serum. The compound being tested is serially diluted from a maximum final concentration of 10 μM (or an equivalent volume of its solvent (DMSO)) and is then added to the cell/serum mixture. Separately, recombinant human CCL20 (MIP-3α/LARC) at its EC50 concentration (10 nM) is placed in the lower wells of the ChemoTX® plate. The 5-μm (pore size) polycarbonate membrane is placed onto the plate, and 20 μL of the cell/compound mixture is transferred onto each well of the membrane. The plates are incubated at 37° C. for 45 minutes, after which the polycarbonate membranes are removed and 5 μl of the DNA-intercalating dye CyQUANT (Invitrogen, Carlsbad, CA) is added to the lower wells. The amount of fluorescence, corresponding to the number of migrated cells, is measured using a Spectrafluor Plus plate reader (TECAN, San Jose, CA).
As to `O=C1CCc2ccc(-c3ccc(S(=O)(=O)N4CCC(Nc5ccc(C(F)(F)F)cn5)CC4)cc3)cc2N1` [Example 1.047], the IC50 is 5 to 100 nM.
Under `O=C1NCCc2nc(-c3ccc(S(=O)(=O)N4CCC(Nc5ccc(C(F)(F)F)cn5)CC4)cc3)sc21` [Example 1.048] stands 5 to 100 nM.
Under `CNc1n[nH]c2ncc(-c3ccc(S(=O)(=O)N4CCC(Nc5ccc(C(F)(F)F)cn5)CC4)cc3)cc12` [Example 1.049] stands less than 5 nM.
Under `O=C1Cc2cc(-c3ccc(S(=O)(=O)N4CCC(Nc5ccc(C(F)(F)F)cc5)CC4)cc3)ccc2N1` [Example 1.050] stands 5 to 100 nM; under `O=C1Nc2ccc(-c3ccc(S(=O)(=O)N4CCC(Nc5ccc(C(F)(F)F)cn5)CC4)cc3)cc2C12CC2` [Example 1.051], less than 5 nM.
`O=c1[nH]c2ccc(-c3ccc(S(=O)(=O)N4CCC(Nc5ccc(C(F)(F)F)cn5)CC4)cc3)cc2n1C1CC1` [Example 1.052]: the IC50 is 5 to 100 nM.
Under `CC(=O)N1Cc2ccc(-c3ccc(S(=O)(=O)N4CCC(Nc5ccc(C(F)(F)F)cn5)CC4)cc3)cc2C1` [Example 1.053] stands less than 5 nM; under `NC(=O)N1Cc2ccc(-c3ccc(S(=O)(=O)N4CCC(Nc5ccc(C(F)(F)F)cn5)CC4)cc3)cc2C1` [Example 1.054], less than 5 nM.
Under `N#Cc1n[nH]c2ccc(-c3ccc(S(=O)(=O)N4CCC(Nc5ccc(C(F)(F)F)cn5)CC4)cc3)cc12` [Example 1.055] stands less than 5 nM; under `N#Cc1c[nH]c2ncc(-c3ccc(S(=O)(=O)N4CCC(Nc5ccc(C(F)(F)F)cc5)CC4)cc3)cc12` [Example 1.056], less than 5 nM; under `O=c1[nH]c(=O)c2ccc(-c3ccc(S(=O)(=O)N4CCC(Nc5ccc(C(F)(F)F)cn5)CC4)cc3)cc2[nH]1` [Example 1.057], 5 to 100 nM.
`O=S(=O)(c1ccc(-c2ccc3c(c2)CNC3)cc1)N1CCC(Nc2ccc(C(F)(F)F)cn2)CC1` [Example 1.058]: the IC50 lay within 100 to 10000 nM.
For the molecule `O=c1[nH]ncc2cc(-c3ccc(S(=O)(=O)N4CCC(Nc5ccc(C(F)(F)F)cn5)CC4)cc3)ccc12` [Example 1.059], the IC50 was less than 5 nM.
The value for `N#Cc1ccc2nc(-c3ccc(S(=O)(=O)N4CCC(Nc5ccc(C(F)(F)F)cn5)CC4)cc3)sc2c1` [Example 1.060] was 5 to 100 nM.
Under `NC(=O)c1ccc(-c2ccc(S(=O)(=O)N3CCC(Nc4ccc(C(F)(F)F)cn4)CC3)cc2)c2cc[nH]c12` [Example 1.061] stands 5 to 100 nM; under `O=C1NS(=O)(=O)c2cc(-c3ccc(S(=O)(=O)N4CCC(Nc5ccc(C(F)(F)F)cn5)CC4)cc3)ccc21` [Example 1.062], 5 to 100 nM.
Under `O=C1NS(=O)(=O)c2ccc(-c3ccc(S(=O)(=O)N4CCC(Nc5ccc(C(F)(F)F)cn5)CC4)cc3)cc21` [Example 1.063] stands 5 to 100 nM.
As to `O=C1Nc2ncc(-c3ccc(S(=O)(=O)N4CCC(Nc5ccc(C(F)(F)F)cn5)CC4)cc3)cc2C12CCOCC2` [Example 1.064], the IC50 was less than 5 nM.
Under `O=c1[nH]c2ncc(-c3ccc(S(=O)(=O)N4CCC(Nc5ccc(C(F)(F)F)cn5)CC4)cc3)cc2o1` [Example 1.065] stands 5 to 100 nM.
The value for `O=C1NCCc2ccc(-c3ccc(S(=O)(=O)N4CCC(Nc5ccc(C(F)(F)F)cn5)CC4)cc3)cc21` [Example 1.066] was less than 5 nM; that for `O=c1[nH]c2cc(-c3ccc(S(=O)(=O)N4CCC(Nc5ccc(C(F)(F)F)cn5)CC4)cc3)cnc2[nH]1` [Example 1.067] was less than 5 nM; that for `Nc1n[nH]c2ncc(-c3ccc(S(=O)(=O)N4CCC(Nc5ccc(C(F)(F)F)cn5)CC4)cc3)cc12` [Example 1.068] was less than 5 nM.
As for `CN(C)c1n[nH]c2ccc(-c3ccc(S(=O)(=O)N4CCC(Nc5ccc(C(F)(F)F)cn5)CC4)cc3)cc12` [Example 1.069], the IC50 was in the range of 5 to 100 nM.
The value for `N#Cc1c(N)[nH]c2ccc(-c3ccc(S(=O)(=O)[C@H]4CC[C@H](Nc5ccc(C(F)(F)F)cn5)CC4)cc3)cc12` [Example 1.070] was less than 5 nM; that for `N#Cc1c[nH]c2ncc(-c3ccc(S(=O)(=O)[C@H]4CC[C@H](Nc5ccc(C(F)(F)F)cn5)CC4)cc3)cc12` [Example 1.071] was less than 5 nM.
The value for `N#Cc1n[nH]c2ccc(-c3ccc(S(=O)(=O)[C@H]4CC[C@H](Nc5ccc(C(F)(F)F)cn5)CC4)cc3)cc12` [Example 1.072] was less than 5 nM.
Under `O=C1Cc2cc(-c3ccc(S(=O)(=O)N4CCC(Nc5ccc(C(F)(F)F)cn5)CC4)cc3)cnc2N1` [Example 1.073] stands less than 5 nM; under `O=C1COc2cc(-c3ccc(S(=O)(=O)N4CCC(Nc5ccc(C(F)(F)F)cn5)CC4)cc3)ccc2N1` [Example 1.074], 5 to 100 nM; under `O=C1NCCc2cc(-c3ccc(S(=O)(=O)N4CCC(Nc5ccc(C(F)(F)F)cn5)CC4)cc3)ccc21` [Example 1.075], less than 5 nM.
Consider `O=C1Cc2cc(-c3ccc(S(=O)(=O)N4CCC(Nc5ccc(C(F)(F)F)cn5)CC4)cc3)ccc2N1` [Example 1.076], for which the IC50 was less than 5 nM.
The value for `COc1n[nH]c2ccc(-c3ccc(S(=O)(=O)N4CCC(Nc5ccc(C(F)(F)F)cn5)CC4)cc3)cc12` [Example 1.077] was 5 to 100 nM.
Take `O=C1CCc2cc(-c3ccc(S(=O)(=O)N4CCC(Nc5ccc(C(F)(F)F)cn5)CC4)cc3)ccc2N1` [Example 1.078]: the IC50 fell in the range of 5 to 100 nM.
The value for `N#Cc1cc2ccc(-c3ccc(S(=O)(=O)N4CCC(Nc5ccc(C(F)(F)F)cn5)CC4)cc3)cc2[nH]1` [Example 1.079] was 5 to 100 nM; that for `NC(=O)c1c[nH]c2ccc(-c3ccc(S(=O)(=O)N4CCC(Nc5ccc(C(F)(F)F)cn5)CC4)cc3)cc12` [Example 1.080] was 5 to 100 nM; that for `Nc1cc2cc(-c3ccc(S(=O)(=O)N4CCC(Nc5ccc(C(F)(F)F)cn5)CC4)cc3)cnc2o1` [Example 1.081] was less than 5 nM.
The value for `O=c1[nH]c2cc(-c3ccc(S(=O)(=O)N4CCC(Nc5ccc(C(F)(F)F)cn5)CC4)cc3)ccc2o1` [Example 1.082] was 5 to 100 nM.
For the molecule `O=S(=O)(c1ccc(-c2ccnc3[nH]ccc23)cc1)N1CCC(Nc2ccc(C(F)(F)F)cn2)CC1` [Example 1.083], the IC50 fell in the range of 5 to 100 nM.
Turning to `O=C1Cc2ccc(-c3ccc(S(=O)(=O)N4CCC(Nc5ccc(C(F)(F)F)cn5)CC4)cc3)cc2N1` [Example 1.084], the IC50 lay within 5 to 100 nM.
Consider `NC(=O)c1cnc2ccc(-c3ccc(S(=O)(=O)N4CCC(Nc5ccc(C(F)(F)F)cn5)CC4)cc3)cn12` [Example 1.085], for which the IC50 is less than 5 nM.
`Nc1nc2ccc(-c3ccc(S(=O)(=O)N4CCC(Nc5ccc(C(F)(F)F)cn5)CC4)cc3)cc2o1` [Example 1.086]: the IC50 is less than 5 nM.
The value for `O=S(=O)(c1ccc(-c2ccc3[nH]nc(C(F)(F)F)c3c2)cc1)N1CCC(Nc2ccc(C(F)(F)F)cn2)CC1` [Example 1.087] was 5 to 100 nM; that for `N#Cc1c[nH]c2ncc(-c3ccc(S(=O)(=O)N4CCC(Nc5ccc(C(F)(F)F)cn5)CC4)cc3)cc12` [Example 1.088] was less than 5 nM.
Under `O=S(=O)(c1ccc(-c2cnc3[nH]ccc3c2)cc1)N1CCC(Nc2ccc(C(F)(F)F)cn2)CC1` [Example 1.089] stands less than 5 nM; under `Cn1nc(C(N)=O)c2cc(-c3ccc(S(=O)(=O)N4CCC(Nc5ccc(C(F)(F)F)cn5)CC4)cc3)ccc21` [Example 1.090], less than 5 nM; under `Cn1nc(C#N)c2cc(-c3ccc(S(=O)(=O)N4CCC(Nc5ccc(C(F)(F)F)cn5)CC4)cc3)ccc21` [Example 1.091], less than 5 nM.
The value for `Cc1nc2cc(-c3ccc(S(=O)(=O)N4CCC(Nc5ccc(C(F)(F)F)cn5)CC4)cc3)ccc2[nH]1` [Example 1.092] was 5 to 100 nM; that for `O=C1NCc2ccc(-c3ccc(S(=O)(=O)N4CCC(Nc5ccc(C(F)(F)F)cn5)CC4)cc3)cc21` [Example 1.093] was less than 5 nM.
Take `Cc1n[nH]c2ccc(-c3ccc(S(=O)(=O)N4CCC(Nc5ccc(C(F)(F)F)cn5)CC4)cc3)cc12` [Example 1.094]: the IC50 was in the range of 5 to 100 nM.
Under `NC(=O)c1n[nH]c2ccc(-c3ccc(S(=O)(=O)N4CCC(Nc5ccc(C(F)(F)F)cn5)CC4)cc3)cc12` [Example 1.095] stands less than 5 nM.
Under `O=S(=O)(c1ccc(-c2ccc3[nH]ncc3c2)cc1)N1CCC(Nc2ccc(C(F)(F)F)cn2)CC1` [Example 1.096] stands 5 to 100 nM.
